The test concerns cytokine, chemokine and angiogenic factors (CAFs). Kind of test: Plasma cytokine, chemokine and angiogenic factor (CAF) levels pre- and post-treatment with E7080 (ELISA and multiplex). Type of test: in vivo, human. To be noted: cycle 2 day 1 vs cycle 1 day 1 (baseline), 122 patients. From the text:
The purpose of this analysis was to measure cytokine, chemokine and angiogenic factors in blood samples, such as plasma and serum, obtained from patients in clinical trials at both pre- and post-treatment with E7080 and to identify blood biomarkers which can be used to predict whether patients will respond to treatment with E7080. For these analyses, the following criteria of response were employed, namely:
Materials and Methods: Patients who had metastatic/unresectable endometrial cancer after 1 or 2 prior platinum-based treatments received lenvatinib until disease progression or development of unmanageable toxicities. Patients received E7080 at a starting dose of 24 mg orally once daily in 28 day cycles. 133 patients were treated and evaluated for efficacy and molecular correlative analysis. This study was a part of the Phase 2 multicenter study of lenvatinib (ClinicalTrial.gov Identifier: NCT01111461). Baseline and post-treatment plasma samples were collected for molecular analyses. […] The association of progression free survival (PFS) and overall survival (OS) were analyzed. […] The ELISA plates were measured using a Molecular Devices UVmax kinetic microplate reader with SoftMax Pro 5.2 software. […] Final protein concentrations (pg/mL) were calculated from the standard curve for each assay. […]
Background: An ELISA detects its analyte on a solid surface through an enzyme-linked reagent.

Structures are written as SMILES.

With `COc1cc2nccc(Oc3ccc(NC(=O)NC4CC4)c(Cl)c3)c2cc1C(N)=O` [E7080, 4-(3-chloro-4-(cyclopropylaminocarbonyl)aminophenoxy)-7-methoxy-6-quinolinecarboxamide], the “changes in levels of CAFs at post-treatment compared to pre-treatment” value is “Significant changes in levels of 19 CAFs among 50 CAFs tested”.
